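Cultured in 96-well plates, cells were exposed to test compound for 48 hours across five concentrations. GI50: concentration for 50% inhibition of growth.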 The source made the active and inactive calls. No stated cut-off is given here; in the data, active = GI50 up to about 1.1 µM and inactive = higher. Where a SMILES comes first, the peptide text is derived from it. [ ]: non-standard residue; d: D form. Ac5c = NC1(C(=O)O)CCCC1
Assays:
Experiment in all cases: growth of human tumour cells (NCI), 48 h
[1] = tested on: T47D
[2] = tested on: SK-MEL-28
[3] = tested on: OVCAR-3
[4] = tested on: SF-268
[5] = tested on: NCI-H23
[6] = tested on: SN12C
[7] = tested on: IGROV-1
[8] = tested on: SK-MEL-5
[9] = tested on: NCI-H460
[10] = tested on: HCC 2998
[11] = tested on: HL-60
[12] = tested on: SK-MEL-2
[13] = tested on: HOP-92
[14] = tested on: MDA-N
[15] = tested on: LOX IMVI
[16] = tested on: HOP-62
[17] = tested on: A498
[18] = tested on: NCI/ADR-RES
[19] = tested on: M14
[20] = tested on: CCRF-CEM

Row | Compound | GI50 [1] | GI50 [2] | GI50 [3] | GI50 [4] | GI50 [5] | GI50 [6] | GI50 [7] | GI50 [8] | GI50 [9] | GI50 [10] | GI50 [11] | GI50 [12] | GI50 [13] | GI50 [14] | GI50 [15] | GI50 [16] | GI50 [17] | GI50 [18] | GI50 [19] | GI50 [20]
1 | O=S(=O)(c1cnccc1N1CCN(CCO)CC1)N1CCCC1 | > 100 µM (inactive) | > 100 µM (inactive) | > 100 µM (inactive) | > 100 µM (inactive) | > 100 µM (inactive) | > 100 µM (inactive) | > 100 µM (inactive) | > 100 µM (inactive) | > 100 µM (inactive) | > 100 µM (inactive) | > 100 µM (inactive) | > 100 µM (inactive) | > 100 µM (inactive) | > 100 µM (inactive) | > 100 µM (inactive) | > 100 µM (inactive) | > 100 µM (inactive) | > 100 µM (inactive) | > 100 µM (inactive) | –
2 | CC(C)c1nc2c(Cl)c3ncccc3cc2[nH]c1=O | 70.5 µM (inactive) | > 100 µM (inactive) | > 100 µM (inactive) | 34.1 µM (inactive) | 80.2 µM (inactive) | > 100 µM (inactive) | 14.8 µM (inactive) | 73.6 µM (inactive) | 88.1 µM (inactive) | – | 50.4 µM (inactive) | > 100 µM (inactive) | > 100 µM (inactive) | > 100 µM (inactive) | – | 32.7 µM (inactive) | > 100 µM (inactive) | 37.8 µM (inactive) | > 100 µM (inactive) | 46.2 µM (inactive)
3 | Clc1ccc(OCc2nnc(CCCCCCCCc3nnc(COc4ccc(Cl)cc4)n3Nc3ccccc3)n2Nc2ccccc2)cc1 | 22.1 µM (inactive) | 4.62 µM (inactive) | 14.2 µM (inactive) | 12.8 µM (inactive) | 18.2 µM (inactive) | 18.2 µM (inactive) | 7.23 µM (inactive) | 0.463 µM (active) | 2.71 µM (inactive) | 12.2 µM (inactive) | – | 16.1 µM (inactive) | 21.4 µM (inactive) | 1.6 µM (inactive) | 21.7 µM (inactive) | 1.08 µM (active) | 62.5 µM (inactive) | 3.84 µM (inactive) | 2.08 µM (inactive) | –
4 | c1csc(-c2cc(-c3ccsc3)c(-c3cccs3)s2)c1 | 2.7 µM (inactive) | 41.3 µM (inactive) | > 100 µM (inactive) | > 100 µM (inactive) | 58.7 µM (inactive) | > 100 µM (inactive) | – | 53.6 µM (inactive) | 43.5 µM (inactive) | 55.8 µM (inactive) | – | – | 32.2 µM (inactive) | 32 µM (inactive) | – | > 100 µM (inactive) | > 100 µM (inactive) | > 100 µM (inactive) | 56.1 µM (inactive) | 28.8 µM (inactive)
5 | COC(=O)[C@@H](NC(=O)c1ccc(CNC(=O)/C(C)=C/c2ccccc2)cc1)C(C)C | 56.2 µM (inactive) | 40.8 µM (inactive) | 27.4 µM (inactive) | > 100 µM (inactive) | > 100 µM (inactive) | > 100 µM (inactive) | > 100 µM (inactive) | 68.4 µM (inactive) | 65 µM (inactive) | 26.9 µM (inactive) | – | 51.1 µM (inactive) | > 100 µM (inactive) | 66.5 µM (inactive) | 59.2 µM (inactive) | > 100 µM (inactive) | > 100 µM (inactive) | > 100 µM (inactive) | 61.2 µM (inactive) | 4.71 µM (inactive)
6 | C/C=C\C1OC1(C)c1cc(=O)c2c(C)cc3c(c2o1)C(=O)c1c(O)c(C2CC(C)(N(C)C)C(OC(C)=O)C(C)O2)cc(C2CC(N(C)C)C(O)C(C)O2)c1C3=O (stereo not drawn) | 0.00386 µM (active) | 0.0152 µM (active) | 0.00451 µM (active) | 0.00516 µM (active) | < 0.00375 µM (active) | < 0.00375 µM (active) | 0.00569 µM (active) | 0.00414 µM (active) | < 0.00375 µM (active) | < 0.00375 µM (active) | – | 0.00463 µM (active) | 0.00593 µM (active) | 0.0043 µM (active) | < 0.00375 µM (active) | < 0.00375 µM (active) | 0.00875 µM (active) | 0.00409 µM (active) | < 0.00375 µM (active) | < 0.00375 µM (active)
7 | O=C1CSC2(CC(/C=C/c3cccc(Br)c3)=NN2c2cccc(S(=O)(=O)O)c2)N1c1nc2ccccc2s1 (stereo not drawn) | 38.5 µM (inactive) | > 100 µM (inactive) | > 100 µM (inactive) | > 100 µM (inactive) | > 100 µM (inactive) | > 100 µM (inactive) | 58.6 µM (inactive) | > 100 µM (inactive) | > 100 µM (inactive) | > 100 µM (inactive) | – | > 100 µM (inactive) | > 49.7 µM (inactive) | > 100 µM (inactive) | > 82.6 µM (inactive) | > 100 µM (inactive) | > 100 µM (inactive) | > 100 µM (inactive) | > 100 µM (inactive) | 20 µM (inactive)
8 | CC(C)[Si](OC/C(=C/COC(C)(C)C)[C@H]1CC=C(C(=O)c2ccccc2N2CN(C)C(=O)N(C)C2)C1)(C(C)C)C(C)C | 7.73 µM (inactive) | 6.22 µM (inactive) | 9.93 µM (inactive) | 6.58 µM (inactive) | 15.2 µM (inactive) | 12.4 µM (inactive) | 12.1 µM (inactive) | 9.95 µM (inactive) | 12.6 µM (inactive) | 12.4 µM (inactive) | – | 13.6 µM (inactive) | 9.73 µM (inactive) | 2.18 µM (inactive) | 2.07 µM (inactive) | 16 µM (inactive) | 19.7 µM (inactive) | 16.4 µM (inactive) | 12.2 µM (inactive) | 3.1 µM (inactive)
9 | COC(=O)c1ccccc1/C=C1\Cc2ccc3ccccc3c2C1C (stereo not drawn) | 17.4 µM (inactive) | > 100 µM (inactive) | 25.6 µM (inactive) | > 100 µM (inactive) | – | 98.9 µM (inactive) | > 100 µM (inactive) | 20.9 µM (inactive) | > 100 µM (inactive) | > 100 µM (inactive) | 24.1 µM (inactive) | > 100 µM (inactive) | 67.9 µM (inactive) | 43.6 µM (inactive) | > 100 µM (inactive) | – | > 100 µM (inactive) | 36 µM (inactive) | 37.4 µM (inactive) | 45.8 µM (inactive)
10 | Cc1ccc2c(c1)SSSSS2 | 12.6 µM (inactive) | 17.1 µM (inactive) | 21.8 µM (inactive) | 25.8 µM (inactive) | 20.8 µM (inactive) | 16.5 µM (inactive) | 19.3 µM (inactive) | 19.1 µM (inactive) | 18.4 µM (inactive) | 17.7 µM (inactive) | 20 µM (inactive) | – | 18.5 µM (inactive) | 23.4 µM (inactive) | 16.2 µM (inactive) | 20.2 µM (inactive) | 18.9 µM (inactive) | 25.4 µM (inactive) | 21.3 µM (inactive) | 4.1 µM (inactive)
11 | Cc1ccc(C2(N3CCCC3)OC(C)(C)c3cccc4cccc2c34)cc1 (stereo not drawn) | 16.3 µM (inactive) | – | 14.9 µM (inactive) | 12.9 µM (inactive) | 16.2 µM (inactive) | 17.5 µM (inactive) | 15.9 µM (inactive) | 15 µM (inactive) | 13.5 µM (inactive) | – | 30.8 µM (inactive) | 14.7 µM (inactive) | 1.48 µM (inactive) | 16.2 µM (inactive) | 15.7 µM (inactive) | 16 µM (inactive) | 16.2 µM (inactive) | 15 µM (inactive) | 17.4 µM (inactive) | 41.1 µM (inactive)
12 | CCc1cccc(C(C)C)c1NC(=O)C(=O)Nn1c(S)nc2ccccc2c1=O | > 100 µM (inactive) | > 100 µM (inactive) | > 100 µM (inactive) | > 100 µM (inactive) | > 100 µM (inactive) | > 100 µM (inactive) | 59.4 µM (inactive) | > 100 µM (inactive) | > 100 µM (inactive) | > 100 µM (inactive) | – | > 100 µM (inactive) | > 100 µM (inactive) | > 100 µM (inactive) | > 100 µM (inactive) | > 100 µM (inactive) | > 100 µM (inactive) | 47.8 µM (inactive) | > 100 µM (inactive) | > 100 µM (inactive)
13 | Brc1ccc(C2C3CSc4ccccc4C3=NN2c2ccccc2)cc1 (stereo not drawn) | 14.3 µM (inactive) | 67.5 µM (inactive) | > 100 µM (inactive) | 70.1 µM (inactive) | > 100 µM (inactive) | > 100 µM (inactive) | 74.8 µM (inactive) | 31.8 µM (inactive) | 32.8 µM (inactive) | – | 42.9 µM (inactive) | > 100 µM (inactive) | > 100 µM (inactive) | > 100 µM (inactive) | 77.8 µM (inactive) | > 100 µM (inactive) | > 100 µM (inactive) | 77.6 µM (inactive) | > 100 µM (inactive) | 34.8 µM (inactive)
14 | NC1(C(=O)NC2(C(=O)O)CCCC2)CCCC1 (H-[Ac5c]-[Ac5c]-OH) | > 100 µM (inactive) | > 100 µM (inactive) | > 100 µM (inactive) | > 100 µM (inactive) | > 100 µM (inactive) | > 100 µM (inactive) | > 100 µM (inactive) | > 100 µM (inactive) | > 100 µM (inactive) | – | > 100 µM (inactive) | > 100 µM (inactive) | > 100 µM (inactive) | > 100 µM (inactive) | > 100 µM (inactive) | > 100 µM (inactive) | > 100 µM (inactive) | > 100 µM (inactive) | > 100 µM (inactive) | > 100 µM (inactive)
15 | NS(=O)(=O)c1cc2c(cc1Cl)NCNS2(=O)=O [HYDROCHLOROTHIAZIDE] | > 100 µM (inactive) | > 100 µM (inactive) | > 100 µM (inactive) | > 100 µM (inactive) | > 100 µM (inactive) | > 100 µM (inactive) | > 100 µM (inactive) | > 100 µM (inactive) | > 100 µM (inactive) | > 100 µM (inactive) | > 100 µM (inactive) | > 100 µM (inactive) | > 100 µM (inactive) | > 100 µM (inactive) | > 100 µM (inactive) | > 100 µM (inactive) | – | > 100 µM (inactive) | > 100 µM (inactive) | > 100 µM (inactive)

Reference: ChEMBL document CHEMBL1201862, “PubChem BioAssay data set” (2004)
